Reference: PubChem BioAssay AID1699 (The Scripps Research Institute Molecular Screening Center, 2009)
Active and inactive are the calls of the source.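 The calls were made as follows: active = IC50 on parental Ba/F3 cells at or below 10 µM; inactive = IC50 above 10 µM.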

Test system: parental Ba/F3 viability, CellTiter-Glo ATP luminescence
Experiment: cytotoxicity in parental murine Ba/F3 cells – cell-based, luminescence, counter-screen for JAK2V617F inhibitor project, dose response (AID 1699)

O=C(CCl)NCc1cc(-c2ccc(Cl)cc2)no1
IC50: 8.35 µM

O=C(CCl)N=c1sccn1Cc1ccc(Cl)cc1Cl
IC50: 0.653 µM

O=c1oc2ccc(Cl)cc2nc1/C=C(\O)c1ccco1
IC50: 8.35 µM

COc1ccccc1C(C[N+](=O)[O-])c1c(N)n(C)c(=O)n(C)c1=O (configuration not stated)
IC50: 6.49 µM

CC1CCCC(NC(=O)NC(=O)CCl)C1C (configuration not stated)
IC50: 10.6 µM (inactive)

CC1CCCN(CCCNC(=O)c2cc3c(Cl)nc4ccccc4c3s2)C1 (configuration not stated)
IC50: 3.5 µM

O=S(=O)(c1cnc(Cl)c(Br)c1)N1CCc2ccccc21
IC50: 5.31 µM

COc1ccc(-c2cnc3c(c2)CCC3(C#N)C#N)cc1
IC50: 2.07 µM

Nc1nc(CCl)nc(Nc2ccc3ccccc3c2)n1
IC50: 1.08 µM

O=C(C=C=Nc1ccccc1)C(=O)N=C=Cc1ccccc1
IC50: 10.7 µM (inactive)

CCOc1ccc(C(=O)C(CN2CCOCC2)c2ccccc2)cc1 (configuration not stated)
IC50: 2.4 µM

O=C(Nc1cccc(NC(=O)c2cccs2)c1)c1ccc([N+](=O)[O-])o1
IC50: 3.7 µM

CCCn1c(CN(C)Cc2ccccc2)nc2c1c(=O)n(C)c(=O)n2C
IC50: 8.17 µM

Cc1nn2c(NCc3ccccn3)c3c(nc2c1-c1ccccc1)CCC3
IC50: 4.28 µM

O=C(OCn1ncc(Cl)c(Cl)c1=O)c1ccc(F)cc1
IC50: 1.14 µM

COc1ccc2nc(C)cc(Sc3nc4ccccc4s3)c2c1
IC50: 6.96 µM

Cc1oc2c(O)c(O)ccc2c(=O)c1-c1cnn(-c2ccccc2)c1
IC50: 2.97 µM

CC(C)C1C(C#N)=C(N)Oc2n[nH]c(-c3ccc4ccccc4c3)c21 (configuration not stated)
IC50: 3.56 µM

CC(C)(C)c1cc(NC(=O)CCl)n(-c2ccccc2)n1
IC50: 3.76 µM

c1ccc(CCNc2nc(-c3ccccn3)nc3ccccc23)cc1
IC50: 3.02 µM

Cc1cc(SCC(=O)N/N=C/c2ccc(O)c(O)c2)c(C)cc1Br
IC50: 10.7 µM (inactive)

Cc1nn(Cc2ccc(Cl)cc2Cl)c(C)c1NC(=O)CCl
IC50: 11.4 µM (inactive)

Cc1cccc(NC(=O)c2ccc([N+](=O)[O-])o2)c1
IC50: 6.88 µM

CN(c1ccccc1)S(=O)(=O)c1cccc(C(=O)NCCc2ccc(O)c(O)c2)c1
IC50: > 40 µM (inactive)

O=C(NC1C=CS(=O)(=O)C1)c1sc2ccccc2c1Cl (configuration not stated)
IC50: 13.8 µM (inactive)

Nc1nc(N)c2nc(-c3ccccc3)c(N)nc2n1
IC50: 4.61 µM

CN(C)C(=S)SSC(=S)N(C)C
IC50: 0.223 µM

CS(=O)(=O)c1nc(-c2ccco2)cc(C(F)(F)F)n1
IC50: 2.28 µM

O=C1C=CCC(/C=C/c2ccccc2)O1 (configuration not stated)
IC50: 8.52 µM

COc1ccc(Nc2ccc3c(c2)=NC2(CCCCC2)[N+]=3[O-])cc1
IC50: 1.71 µM

Cc1cccc(Nc2nc(N)nc(CCl)n2)c1C
IC50: 2.07 µM

O=C(OCn1ncc(Cl)c(Cl)c1=O)c1ccccc1Cl
IC50: 1.2 µM

O=C(CCl)N(C/C=C/c1ccccc1)c1ccc2c(c1)OCCO2
IC50: 2.51 µM

CC(C)(C)/C(O)=C/c1nc2cc(Cl)ccc2oc1=O
IC50: 9.55 µM

Cc1ccccc1CS(=O)(=O)c1nnc([C@H](Cc2ccccc2)NC(=O)OC(C)(C)C)o1
IC50: 5.33 µM

CCCOc1ccc(C(=O)C(CN2CCOCC2)c2ccccc2)cc1 (configuration not stated)
IC50: 2.46 µM

COc1ccccc1N(C(=O)CCl)c1cn(C(C)=O)c2ccccc12
IC50: 4.61 µM

O=S(=O)(c1cnc(Cl)c(Cl)c1)N1CCc2ccccc21
IC50: 15.8 µM (inactive)

C/C(=C\c1ccc(N(C)C)cc1)[N+](=O)[O-]
IC50: 3.5 µM

O=C(CSc1nnnn1-c1ccc(F)cc1)c1ccc(O)c(O)c1
IC50: 11.1 µM (inactive)

CC1CCN(CCCNC(=O)c2cc3c(Cl)nc4ccccc4c3s2)CC1
IC50: 4.39 µM

O=C(Nc1cccc2c1[nH]c1ccccc12)C(F)(F)F
IC50: 13.7 µM (inactive)

CC(C)(C)OC(=O)N[C@@H](Cc1ccccc1)c1nnc(S(=O)(=O)Cc2cccc(F)c2)o1
IC50: 3.74 µM

CCN(CC)S(=O)(=O)c1cccc(-n2c(O)c(C=Nc3ccccc3C(=O)O)c3ccccc3c2=O)c1
IC50: > 40 µM (inactive)

Oc1ccc(Cl)cc1N=Cc1sc2ccccc2c1Cl
IC50: 5.94 µM

O=C1C=C(Nc2ccc(O)cc2)C(=O)c2ccccc21
IC50: 7.53 µM

Cc1[nH]c(=O)c(C(=O)/C=C/c2ccccc2F)c2c1CCCC2
IC50: 5.19 µM

Cc1c(Cc2ccccc2)c(=O)oc2c(O)c(O)ccc12
IC50: 8.62 µM

Cc1cccc(CS(=O)(=O)c2nnc([C@H](Cc3ccccc3)NC(=O)OC(C)(C)C)o2)c1
IC50: 3.64 µM

Cc1cccc(N(Cc2ccccc2)C(=O)CCl)c1
IC50: 1.63 µM

Cc1cc2[nH]c3c(c[n+](C)c4ccccc34)c2cc1C
IC50: 3.85 µM

COc1cccc(/C=N/NC(=O)c2[nH]c(C)c(C(=O)N/N=C/c3cccc(OC)c3O)c2C)c1O
IC50: 6.66 µM

COc1ccc(OC)c(NS(=O)(=O)c2ccc(SC)cc2)c1
IC50: 12.4 µM (inactive)

Cc1ccc(NC(=O)C(=Cc2ccc(C(=O)O)cc2)C(=O)Nc2ccc(C)cc2C)c(C)c1
IC50: 5.46 µM

Cc1ccc2nc(C)cc(Nc3ccc([N+](=O)[O-])cc3)c2c1
IC50: 3.31 µM

COc1cccc(N(C(=O)CCl)C(C(=O)NCCc2ccccc2)c2cccs2)c1 (configuration not stated)
IC50: 1.34 µM

COc1ccccc1-c1nnc(Sc2nc([N+](=O)[O-])nn2C)o1
IC50: 4.65 µM

O=c1cnn([C@@H]2O[C@H](CO)[C@@H](O)[C@H]2O)c(=O)[nH]1
IC50: 6.8 µM

c1ccc2c(CN3CCCCCC3)c[nH]c2c1
IC50: 10.7 µM (inactive)

O=C1C=CC(=O)N1CCNc1ncc(C(F)(F)F)cc1Cl
IC50: 1.76 µM

COc1ccc(C2=Nn3c(nnc3C3CCCCC3)SC2)cc1OC
IC50: 7.52 µM

c1ccc2c(c1)CSc1sccc1C2=C1CCNCC1
IC50: 10.5 µM (inactive)

O=C(/C(=N/N=C/c1ccc(O)c(O)c1)c1ccccc1)c1ccccc1
IC50: 1.67 µM

N#C/C(=C\c1ccc(O)c(O)c1)C(=O)NCCCc1ccccc1
IC50: 6.01 µM

CCOc1ccc(Nc2nc(N)nc(CCl)n2)cc1
IC50: 1.92 µM

Oc1ccc(/C=N/N2CCN(C3c4ccccc4-c4ccccc43)CC2)cc1O
IC50: 5.68 µM

[O-][N+]1=c2ccc(Nc3ccccc3)cc2=NC12CCCCC2
IC50: 5.2 µM

Clc1ccc(-n2nnnc2Sc2ncnc3sccc23)cc1
IC50: 2.91 µM

O=C(CCl)NC(=O)NC12CC3CC(CC(C3)C1)C2
IC50: 4.37 µM

CCCCn1c(=N)n(CC(=O)c2ccc(Br)s2)c2ccccc21
IC50: 4.37 µM

O=C(/C=C/c1ccc(O)c(O)c1)c1ccc(S(=O)(=O)N2CCCCCC2)cc1
IC50: 7.51 µM

O=C1/C(=C/c2ccc(O)c(O)c2)SC(=S)N1Nc1ccccc1
IC50: 11 µM (inactive)

O=S(=O)(c1cccs1)N1CCN(c2ccc(O)cc2)CC1
IC50: 5.66 µM

Cc1nc2c(=O)n(C)c(=O)n(C)c2nc1Cl
IC50: 4.55 µM

O=C(CCl)N=c1sccn1Cc1cccc2ccccc12
IC50: 1.04 µM

COc1ccc([N+](=O)[O-])c(S(=O)(=O)c2ccc(Cl)cc2)n1
IC50: 3.26 µM

COC(=O)/C=C/c1ccc(OC(=O)OC)c(OC(=O)OC)c1
IC50: 10.7 µM (inactive)

COc1cc(/C=C2\COC/C(=C\c3ccc(O)c(OC)c3)C2=O)ccc1O
IC50: 3.62 µM

Cc1nc([N+](=O)[O-])c(Br)n1Cc1ccc(Cl)c(Cl)c1
IC50: 8.44 µM

COc1cccc(F)c1C(C[N+](=O)[O-])c1c(N)n(C)c(=O)n(C)c1=O (configuration not stated)
IC50: 4.22 µM

Cc1ccccc1CS(=O)(=O)c1nnc([C@H](CC(C)C)NC(=O)OC(C)(C)C)o1
IC50: 1.68 µM

COc1ccc(-c2cc(-c3cc(C)ccc3O)[nH]n2)cc1
IC50: 8.76 µM

O=C(O)c1[nH]c(=O)[nH]c(=O)c1F
IC50: 6.87 µM

O=C(CCl)N=c1sccn1Cc1ccccc1Cl
IC50: 1.11 µM

COc1ccc(N2CCc3c(C)nc4c(OC)cc(OC)cc4c32)c(OC)c1
IC50: 8.32 µM

COc1ccc(Nc2nc(N)nc(CCl)n2)cc1
IC50: 2.66 µM

Cc1ccc(Nc2nc(N)nc(CCl)n2)cc1
IC50: 1.42 µM

Oc1ccccc1OCCOc1ccccc1OCCOc1ccccc1O
IC50: 7.12 µM

Cc1cccc(OCC(=O)Nc2cc(C)ccc2O)c1
IC50: > 40 µM (inactive)

CCCc1nc2ccccc2c(=O)n1/N=C/c1ccc(O)c(O)c1
IC50: 3.62 µM

CCCCCCN(C(=O)CCl)c1ccccc1
IC50: 2.11 µM

Cc1ccc(C)c(Sc2ccc(NC(=O)CCl)cc2)c1
IC50: 7.25 µM

CCCC(=O)N(C1CC(C)C(C#N)(C#N)C1(C#N)C#N)N(C)C (configuration not stated)
IC50: 4.77 µM

CCC(C)[C@@H](NC(=O)OC(C)(C)C)c1nnc(S(=O)(=O)Cc2cccc(C)c2)o1 (some centres not stated)
IC50: 4.67 µM

CCN1C/C(=C/c2ccc(OC)c(O)c2)C(=O)/C(=C/c2ccc(OC)c(O)c2)C1
IC50: 1.5 µM

COC1(OC)C(/C=C/c2ccc(Cl)cc2)C(C#N)(C#N)C1(OC)OC (configuration not stated)
IC50: 7.83 µM

COc1cc2c(cc1OC)-c1cc(N3CCCc4ccccc43)nc(=O)n1CC2
IC50: 35.6 µM (inactive)

Cc1ccc(Cn2ccsc2=NC(=O)CCl)cc1
IC50: 7.76 µM

O=C(Oc1cccc2c(O)cccc12)c1ccccc1
IC50: 6.51 µM

Cc1nc([N+](=O)[O-])c(Br)n1CC(=O)c1ccc2ccccc2c1
IC50: 3.68 µM

CCCn1c(CC)nc([N+](=O)[O-])c1S(=O)(=O)c1ccccc1
IC50: 5.9 µM

COc1ccc(-n2nnnc2SCC(=O)c2ccc(O)c(O)c2)cc1
IC50: 3.34 µM

CNC(=O)c1nnsc1S(=O)c1ccc(Cl)cc1 (configuration not stated)
IC50: 2.26 µM

C#CCSc1nsc(SCC#C)c1C#N
IC50: 2.83 µM

Cc1[nH]c2ccccc2c(=O)c1C(=O)/C=C/c1ccccc1
IC50: 3.12 µM

COC(=O)COc1cccc2c(=O)n(CC(=O)NCc3ccc(F)cc3)ccc12
IC50: 3.34 µM

Nc1nc(CCl)nc(N(c2ccccc2)c2ccccc2)n1
IC50: 1.26 µM
